Columns and labels:
[1] = test system: Type I Madin-Darby canine kidney (MDCK) cells; assay: Cyst growth of MDCK cells in collagen gels with cAMP agonists; format: cell-based; conditions: 40 μM; days 12 to 21
Procedure: (§1) For cyst growth and cell proliferation experiments, we used Type I Madin-Darby canine kidney (MDCK) cells. We chose Type I MDCK cells because they form cysts when grown in collagen gels in the presence of cAMP agonists (26) and because they express the CFTR Cl^− channel (27). MDCK cells were cultured in MDCK media (a 1:1 mixture of Dulbecco's Modified Eagle Medium (DMEM) and Ham's F-12 nutrient medium supplemented with 100 U ml^−1 penicillin, and 100 μg ml^−1 streptomycin and either 10% fetal bovine serum (FBS; cyst growth) or 5% FBS and 1% insulin-transferrin-selenium-X (ITS-X) supplement (cell proliferation); all from Life Technologies Ltd, Paisley, UK) at 37° C. in a humidified atmosphere of 5% CO2.
To grow cysts, MDCK cells were cultured in collagen gels using a modification of the method of Grantham et al. (26). Cells were trypsinized with 0.25% (wt/vol) trypsin for 30 minutes at 37° C., diluted with MDCK media containing 10% FBS to form a suspension of between 1-3×10^4 cells ml^−1, and aliquoted into individual wells of a 24-well plate (0.1 ml per well). Each well contained 0.4 ml of ice-cold Vitrogen (3.0 mg ml^−1 collagen; Cohesion Technologies Inc., Palo Alto, USA) supplemented with 10% (vol/vol) 10× minimum essential medium, 10 mM N-[2-hydroxyethyl]piperazine-N′-[2-ethanesulphonic acid] (Hepes), 27 mM NaHCO3, 100 U ml^−1 penicillin, and 100 μg ml^−1 streptomycin, and adjusted to pH 7.4 with NaOH. The 24-well plate was gently agitated to distribute cells throughout the Vitrogen and incubated in a water bath at 37° C. for 90 minutes to promote gelation of the Vitrogen.
After gelation, 1.5 ml MDCK media containing 10% FBS was added to each well of the 24-well plate. To promote cyst growth, we added cAMP agonists (forskolin (10 μM), 3-isobutyl-1-methylxanthine (IBMX; 100 μM), and 8-(4-chlorophenylthio) adenosine 3′:5′-cyclic monophosphate (CPT-cAMP; 500 μM)) to the MDCK media. Plates were maintained at 37° C. in a humidified atmosphere of 5% CO2 and the MDCK media containing cAMP agonists changed every three days.
Twelve days after seeding collagen gels with MDCK cells, cysts were readily detected at ×1000 magnification using an inverted microscope with phase contrast optics (Leica, model DMIL, Milton Keynes, UK). To test the effect of CFTR modulators on cyst growth, drugs were added to MDCK media in the continued presence of cAMP agonists. MDCK media containing cAMP agonists and CFTR modulators was changed every 3 days for a total period of 9 days. Photographs of individual cysts were taken before the addition of CFTR modulators and at three day intervals over the duration of the experiment. To identify individual cysts, each cyst was assigned a unique reference number using a grid placed below the 24-well plate.
The diameter of cysts was measured directly from photographs of cysts using images that had been magnified by identical amounts. By assuming that cysts are spherical in shape, we calculated cyst volume ( 4/3·π·r^3).

[2] = biological target: T1, wild-type human CFTR (Homo sapiens, UniProt P13569); assay: CFTR Cl− channels recorded in excised inside-out membrane patches from C127 cells (patch-clamp); format: biochemical; conditions: for effect on CFTR Cl− currents: PKA and ATP present
T1 construct: expressed in transfected cells
T1 sequence (P13569 whole entry): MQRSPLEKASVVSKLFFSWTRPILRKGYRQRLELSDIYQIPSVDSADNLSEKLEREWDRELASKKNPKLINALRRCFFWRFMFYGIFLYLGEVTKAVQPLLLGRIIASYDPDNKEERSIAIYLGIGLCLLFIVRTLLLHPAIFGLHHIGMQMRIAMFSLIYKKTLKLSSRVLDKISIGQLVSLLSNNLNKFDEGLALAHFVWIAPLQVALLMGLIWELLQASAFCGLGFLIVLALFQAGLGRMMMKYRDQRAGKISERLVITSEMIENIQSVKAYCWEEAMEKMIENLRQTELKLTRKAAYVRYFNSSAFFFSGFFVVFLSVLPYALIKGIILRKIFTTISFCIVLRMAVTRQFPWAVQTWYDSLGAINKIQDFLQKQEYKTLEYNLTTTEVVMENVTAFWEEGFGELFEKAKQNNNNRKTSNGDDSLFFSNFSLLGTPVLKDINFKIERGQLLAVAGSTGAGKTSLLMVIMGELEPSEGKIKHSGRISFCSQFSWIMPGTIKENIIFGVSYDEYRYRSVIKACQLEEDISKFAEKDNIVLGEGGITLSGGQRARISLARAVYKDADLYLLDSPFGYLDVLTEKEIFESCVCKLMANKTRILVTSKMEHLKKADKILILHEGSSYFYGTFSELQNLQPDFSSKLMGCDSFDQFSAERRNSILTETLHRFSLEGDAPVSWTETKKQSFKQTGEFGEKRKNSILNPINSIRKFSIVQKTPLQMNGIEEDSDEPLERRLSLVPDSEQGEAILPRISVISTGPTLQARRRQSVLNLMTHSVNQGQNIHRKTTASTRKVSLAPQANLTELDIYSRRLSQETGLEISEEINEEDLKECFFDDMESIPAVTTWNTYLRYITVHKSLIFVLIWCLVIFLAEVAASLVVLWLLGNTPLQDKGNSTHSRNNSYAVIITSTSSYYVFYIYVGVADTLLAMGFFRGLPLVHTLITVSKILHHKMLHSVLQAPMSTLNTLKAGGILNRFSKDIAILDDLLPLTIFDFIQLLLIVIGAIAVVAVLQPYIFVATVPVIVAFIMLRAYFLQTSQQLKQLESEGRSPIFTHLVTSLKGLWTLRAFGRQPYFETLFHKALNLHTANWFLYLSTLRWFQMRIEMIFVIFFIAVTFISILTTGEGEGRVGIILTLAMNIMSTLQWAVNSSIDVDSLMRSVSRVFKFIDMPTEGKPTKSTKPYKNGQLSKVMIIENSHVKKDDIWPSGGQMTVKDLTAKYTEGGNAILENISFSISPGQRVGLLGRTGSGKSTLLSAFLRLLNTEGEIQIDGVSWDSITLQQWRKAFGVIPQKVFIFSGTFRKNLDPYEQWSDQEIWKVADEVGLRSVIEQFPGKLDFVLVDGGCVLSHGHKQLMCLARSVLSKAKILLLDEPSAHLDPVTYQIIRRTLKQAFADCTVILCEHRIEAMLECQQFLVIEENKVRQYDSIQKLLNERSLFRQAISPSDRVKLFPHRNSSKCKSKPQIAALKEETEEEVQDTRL
Procedure: For electrophysiological experiments, we used mouse mammary epithelial cells (C127 cells) stably expressing wild-type human CFTR (12). C127 cells expressing wild-type CFTR were cultured as previously described (10). Cells were seeded onto glass coverslips and used within 48 h.
The established sign convention was used throughout; currents produced by positive charge moving from intra- to extracellular solutions (anions moving in the opposite direction) are shown as positive currents.
[…] […] All experiments were conducted at 37° C.
PKA was maintained in the intracellular solution for the duration of experiments. Unless otherwise stated, voltage was −50 mV.
In time course studies, each point is the average current for a 4 s period with data points collected continuously; no data were collected while solutions were changed. Average current (I) for a specific intervention was determined as the average of all the data points collected during the intervention. […] Mean data were fitted to a linear form of equation (1) using linear least-squares regression to yield Ki and n values.
To measure single-channel current amplitude (i), Gaussian distributions were fitted to current amplitude histograms. For open probability (Po) and kinetic analyses, lists of open and closed times were created using a half-amplitude crossing criterion for event detection. Transitions <1 ms in duration were excluded from the analyses. Po was calculated using the equation: Po=(T1+T2+ . . . +TN)/(NTtot), (2) where N is the number of channels; Ttot is the total time analysed, and T1 is the time that one or more channels are open, T2 is the time two or more channels are open and so on. Only membrane patches that contained a single active channel were used for single-channel kinetic analyses.
To investigate whether inhibition of CFTR by fluorescein derivatives was voltage dependent, we used voltage ramp protocols. Macroscopic current-voltage (I-V) relationships were obtained in the absence and presence of fluorescein derivatives by averaging currents generated by 15-30 ramps of voltage each of 2 s duration; holding voltage was −50 mV. Basal currents recorded in the absence of PKA and ATP were subtracted from those recorded in the absence and presence of fluorescein derivatives to determine the effect of these agents on CFTR Cl^− currents.

[3] = test system: Type I MDCK cells; assay: Proliferation of MDCK cells (cell counting); format: cell-based, canine
Procedure: as §1
To test the effect of CFTR modulators on the proliferation of MDCK cells, we used Type I MDCK cells grown in media containing 5% FBS and 1% ITS-X supplement. On day −1, MDCK cells were seeded at 7.5×10^4 cells ml^−1 in 35 mm dishes containing MDCK media with 1% FBS and 1% ITS-X supplement. On day 0, the concentration of FBS was reduced further to 0.01% and CFTR modulators added to the MDCK media. MDCK media containing CFTR modulators was changed every 2 days for a total period of 6 days. To determine the number of cells per 35 mm dish, Type I MDCK cells were harvested using trypsin (0.25% wt/vol), centrifuged at 1200 rpm for 5 min and resuspended in 1 ml of MDCK media before counting using a haemocytometer.

O=C(O)c1c(Cl)c(Cl)c(Cl)c(Cl)c1-c1c2cc(Br)c(=O)c(Br)c-2oc2c(Br)c(O)c(Br)cc12 [phloxine B]
size of cysts (phase-contrast) [1]: visible decrease in the size of cysts
n (slope factor, Hill coefficient) of CFTR inhibition [2]: 2
potency of CFTR inhibition compared with glibenclamide [2]: potency greater than or equal to that of glibenclamide
reversibility of CFTR inhibition [2]: partially reversible
effect of ATP (5 mM) on inhibition of CFTR Cl− currents ([2]; 20 μM): fails to relieve
pattern of channel gating ([2]; 20 μM): dramatically altered the pattern of channel gating
open probability (Po) ([2]; 20 μM, P<0.05 vs control): significantly decreased
single-channel current amplitude (i) ([2]; 20 μM, P<0.05 vs control): significantly decreased
channel block at positive voltages ([2]; 40 μM, symmetrical 147 mM Cl−): relieved
effect on CFTR Cl− currents at negative voltages ([2]; 40 μM, symmetrical 147 mM Cl−): decreased CFTR Cl^− currents
effect on CFTR Cl− currents ([2]; 1-5 μM in intracellular solution): stimulated
effect on CFTR Cl− currents ([2]; 20-50 μM in intracellular solution): concentration-dependent decrease
rank order of potency for CFTR inhibition ([2]; concentration-response, FIG. 3): bengal rose B>phloxine B>eosin Y≧tetrachlorofluorescein>>fluorescein
stimulation of CFTR channel activity ([2]; concentration-response, FIG. 3): stimulated channel activity
effect on activity of CFTR Cl− channels ([2]; in the absence of either ATP or PKA): without effect
effect on channel block by glibenclamide (50 μM) ([2]; phloxine B 1 μM): failed to prevent channel block
I (average CFTR Cl− current) relative to control ([2]; phloxine B 20 μM together with glibenclamide 50 μM): 10±2 % of the control value
I (average CFTR Cl− current) relative to control ([2]; phloxine B 20 μM, ATP 5 mM): 51±5 % of the control value
I (average CFTR Cl− current) relative to control ([2]; phloxine B 20 μM, […]): 56±6 % of the control value
I (average CFTR Cl− current) relative to control ([2]; phloxine B 20 μM, […], listed as Phloxine B): 59±4 % of the control value
voltage-dependence of CFTR inhibition ([2]; voltage ramp ±100 mV, symmetrical 147 mM Cl−, ATP 1 mM): voltage-dependent
inhibition of cell growth in the presence of cAMP agonists [3]: unaffected by cAMP agonists
rank order of prevention of cell growth [3]: ouabain (1 μM)=phloxine B (40 μM)=genistein (100 μM)=NPPB (400 μM)>glibenclamide (100 μM)
cell growth (number of cells), day 0 to 6 ([3]; 40 μM): prevented cell growth

From patent US7304090B2, “Inhibition of the cystic fibrosis transmembrane conductance regulator chloride channel” (The University of Bristol, priority 2000, dated 2007)
